Measured values published in US20250161338A1, “Compounds for Anti-aging Intervention” (AGENCY FOR SCIENCE, TECHNOLOGY AND RESEARCH, priority 2022, published 2025).
Entries after “also recorded” stand apart in the source; their conditions may differ.

Columns and labels:
[1] = test system: wild-type Saccharomyces cerevisiae CEN.PK113-7D yeast strain; assay: Chronological lifespan analysis in yeast (PI, outgrowth, spotting); type: cell-based
Procedure: (§1) Yeast strain was recovered from frozen glycerol stock at 30° C. on YPD agar medium. Yeast was left to propagate in SD medium overnight at 30° C. with shaking at 220 revolutions per minute (rpm). Cells propagated overnight were diluted to a starting optical density at 600 nm (OD600) of approximately 0.2 in fresh SD medium to begin the chronological lifespan (CLS) experiments.
CLS experiments were performed in 96-well plates with 200 μL yeast culture. Cellular inoculums were transferred into 96-well plates containing serially double-diluted concentrations (0 to 10 nM) of rapamycin. […] Cells were incubated at 30° C., and the growth was measured at different time points. The growth time point 72 hours was considered as Day 1 for the CLS assay. Cell survival was quantified at various age time points by three different approaches: (i) PI fluorescence-based method, (ii) outgrowth in YPD liquid medium, and (iii) spotting assay (FIG. 1).
Yeast cells (40 μL) from different age time points were transferred into a second 96-well plate (different to the 96-well plate in which the CLS analysis as outlined above was performed). Cells were washed and incubated in 100 μL 1×phosphate buffered saline (PBS) with propidium iodide (PI) (5 μg/mL) for 15 minutes in the dark. Positive and negative control samples were included for quantitative analysis. Positive control (cells boiled at 100° C. for 15 minutes) was PI-stained and processed in the same 96-well plate. Samples without PI-stained cells served as the negative control. After incubation, cells were washed and resuspended in 100 μL PBS. The fluorescence reading of the samples (excitation and emission wavelengths at 535 nm and 617 nm, respectively) and OD600 were measured with a microplate reader (BioTek, Winooski, Vermont, United States). The fluorescence intensity of each sample was normalized with OD600. The background fluorescence signal of the unstained negative sample was subtracted from the normalized fluorescence intensity of each sample. The obtained fluorescence intensity of the positive control (boiled dead cells) was considered 0% cell survival. Cell death was validated by allowing the boiled dead cells to grow in medium. Cell survival at different age time points of samples were calculated by normalizing the fluorescence intensity with positive control sample (boiled cells).
Yeast stationary culture (3 μL) of different age time points were transferred to a second 96-well plate, containing 200 μL YPD medium, and incubated for 24 hours at 30° C. Outgrowth (OD600) of aged cells was measured by the microplate reader. Quantification of cell survival for each age point was determined as relative to Day 1 (considered 100% cell survival). This quantification was performed by using the formula,
Yeast stationary culture (3 μL) of different age time points were spotted onto a YPD agar plate and incubated for 48 hours at 30° C. The outgrowth of aged cells on the YPD agar plate was photographed using the Bio-Rad GelDoc Imaging System (Bio-Rad, Hercules, California, United States).

[2] = test system: wild-type Saccharomyces cerevisiae CEN.PK113-7D yeast strain; assay: Yeast cell growth (OD600) in SD medium; type: cell-based; details: 0 to 8 mM; 24, 48 and 72 hours
Procedure: as §1
CLS experiments were performed in 96-well plates with 200 μL yeast culture. Cellular inoculums were transferred into 96-well plates containing serially double-diluted concentrations (0 to 10 nM) of rapamycin. Cellular inoculum was transferred into 96-well plates containing serially double-diluted concentrations (0 to 8 mM) of 2,5-anhydro-D-mannitol, D-fructose, D-mannitol, D-maltose, and D-sorbitol in SD medium. Cells were incubated at 30° C., and the growth was measured at different time points. The growth time point 72 hours was considered as Day 1 for the CLS assay. Cell survival was quantified at various age time points by three different approaches: (i) PI fluorescence-based method, (ii) outgrowth in YPD liquid medium, and (iii) spotting assay (FIG. 1).
Firstly, the effect of 2,5-AM on cell growth was determined. Yeast cells were incubated with varying concentrations of 2,5-AM in the SD medium. Cell growth was measured at different time points (24 hours, 48 hours, and 72 hours). […] Then, the survival of chronologically aged cells supplemented with different concentrations of 2,5-AM was measured using the PI fluorescence method. At each chronological age point, a 3 μL culture was transferred to a second 96-well plate containing 200 μL YPD medium. The 72-hour growth culture was considered Day 1 for the CLS analysis. The viability fraction was calculated, and a survival graph was plotted for different chronological age time points (FIG. 5). […] The survival of aged cells supplemented with 2,5-AM (4 mM and 8 mM) on Day 4 was approximately 80%. However, the survival of aged cells without 2,5-AM was approximately 50%. On Day 7, survival of 2,5-AM supplemented aged cells was approximately 75%. However, the survival of aged cells without 2,5-AM was reduced to less than 20%.
Firstly, the effect of fructose, mannitol, maltose, and sorbitol on cell growth was tested. Yeast cells were incubated with various concentrations of fructose, mannitol, maltose, and sorbitol similar to 2,5-AM in the SD medium. […] Next, the survival of chronologically aged cells on day 1, day 7, day 14, and day 21 was measured. […] Aged cells supplemented with 2,5-AM (8 mM) survived (approximately 65%) on Day 21. However, the survival of aged cells without 2,5-AM supplementation was less than 10%.

[3] = test system: wild-type Saccharomyces cerevisiae CEN.PK113-7D yeast strain; details: very high concentrations (18% equivalent to 1M); by increasing osmolarity; cited from earlier work
[4] = test system: prototrophic yeast strain (CEN.PK113-7D); assay: Yeast outgrowth in YPD liquid medium (CLS of aged cells); type: cell-based, Saccharomyces cerevisiae; details: age point day 14
Outline: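 Cultures aged at 30 °C in SD medium with double-diluted rapamycin (0–10 nM) or sugars/polyols (0–8 mM). On day 14, 3 µL of culture was transferred into 200 µL YPD and outgrowth read as OD600. Survival expressed relative to day 1 outgrowth (100%).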

[5] = test system: prototrophic yeast strain (CEN.PK113-7D); assay: Propidium iodide fluorescence-based CLS method in yeast (incl. high-throughput screening); type: cell-based, Saccharomyces cerevisiae; details: for Yeast CLS increase: Yes/No call of the screen;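 as to PI intensity: untreated reference is eight DMSO and water control wells per plate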
Outline: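 CEN.PK113-7D aged in SD medium at 30 °C with compounds (rapamycin 0–10 nM; sugars 0–8 mM; screen at single concentrations). At each age point cells were stained with 5 μg/mL PI for 15 min; fluorescence was normalized to OD600, background-subtracted, and survival scaled against boiled-cell control.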

human cells = assay: High-throughput chemical screening using the PI method in human cells; type: cell-based; details: Day 6; library tested at 1 μM; controls ranged from 4.22 to 4.53; lower = extended CLS
Procedure: The stock solution of rapamycin, hemin, 5-fluorouracil, atorvastatin, and methotrexate was prepared in DMSO, followed by serial dilution to form various concentrations used in the experiment. The final DMSO concentration was kept at 0.05% in all experiments. The stock solution of 2,5-anhydro-D-mannitol was prepared in D10 medium. The chemical library used in screening were tested at 1 μM concentrations. Controls used were the same as the solvent applied, DMSO or water.
The assay was performed by preparing the cells with PI (2 μg/mL or 5 μg/mL) in a D10 medium. 200 μL culture (8×10^4 cells) was seeded per well in a 96-well plate with different concentrations of the anti-aging drug (rapamycin, 2,5-AM, plicamycin, copanlisib dihydrochloride, nedaplatin, hemin, 5-fluorouracil, methotrexate, or atorvastatin) and no treatment control (DMSO). The culture plate was kept away from light throughout the experiment and incubated at 37° C. with 5% CO2. At different age time points, reading was taken with a Synergy MX microplate reader (BioTek, Winooski, Vermont, United States) at 535 nm excitation and 617 nm emission.
The PI method was used to identify additional novel anti-aging compounds that prolong CLS. A total of 162 compounds were screened, including some FDA-approved drugs and natural products. The log10 values of the PI intensity for the various control samples ranged from 4.22 to 4.53.

[6] = 0 to 8 mM in SD medium, up to day 21
[7] = concentration tested 100 μM, OD600 nm after 24 h in YPD at 30° C.
[8] = concentration tested 100 μM, solvent DMSO or water, chronological age point Day 7 (72 h growth = Day 1), lower = more survival
[9] = concentration tested 30 μg/mL, OD600 nm after 24 h in YPD
[10] = concentration tested 30 μg/mL, solvent water, age point Day 7

Compound	Outgrowth [4, 7]	Yeast CLS increase ([5]; concentration tested 100 μM)	PI intensity [5, 8]	other results
O=C(CO)[C@@H](O)[C@H](O)[C@H](O)CO [fructose, D-fructose]				effect on yeast CLS [1, 6]: did not extend the lifespan of the yeast; cell growth [2]: reached growth saturation after 24 hours
OC[C@H]1O[C@H](O[C@H]2[C@H](O)[C@@H](O)[C@H](O)O[C@@H]2CO)[C@H](O)[C@@H](O)[C@@H]1O [maltose, D-maltose]				effect on yeast CLS [1, 6]: did not extend the lifespan of the yeast; cell growth [2]: reached growth saturation after 24 hours
OC[C@@H](O)[C@@H](O)[C@H](O)[C@H](O)CO [mannitol, D-mannitol]				effect on yeast CLS [1, 6]: did not extend the lifespan of the yeast; cell growth [2]: reached growth saturation after 24 hours
OC[C@@H](O)[C@@H](O)[C@H](O)[C@@H](O)CO [sorbitol, D-sorbitol]				effect on yeast CLS [1, 6]: did not extend the lifespan of the yeast; also recorded: unable to increase the CLS; effect on yeast CLS ([1]; very high concentrations, between 0.5 and 1 M): increased the CLS of yeast; effect on yeast CLS (known) [3]: increase the CLS of yeast cells; cell growth [2]: reached growth saturation after 24 hours
Amarogentin	0.1	No	70,083.5	
Aprotinin	0.1	No	70,144.6	
Catechin	0.1	No	63,589.5	
Chondroitin (sulfate)				Outgrowth [4, 9]: 0.1; Yeast CLS increase ([5]; concentration tested 30 μg/mL): No; PI intensity [5, 10]: 75,572.6
Cisatracurium (besylate) [reference compound]	0.1	No	75,862.3	
Escin	0.1	No	70,495.1	
Estramustine (phosphate sodium) [reference compound]	0.2	No	77,514.0	
Estrone sulfate (potassium)	0.1	No	54,751.8	
Gentamicin (sulfate) [reference compound]				Outgrowth [4, 9]: 0.1; Yeast CLS increase ([5]; concentration tested 30 μg/mL): No; PI intensity [5, 10]: 73,296.2
Gramicidin [reference compound]	0.1	No	79,922.3	
Heparin (Lithium salt) [reference compound]				Outgrowth [4, 9]: 0.1; Yeast CLS increase ([5]; concentration tested 30 μg/mL): No; PI intensity [5, 10]: 77,829.1
Heparin (sodium salt) (MW 15 kDa) [reference compound]				Outgrowth [4, 9]: 0.1; Yeast CLS increase ([5]; concentration tested 30 μg/mL): No; PI intensity [5, 10]: 64,969.0
Hyaluronidase				Outgrowth [4, 9]: 0.1; Yeast CLS increase ([5]; concentration tested 30 μg/mL): No; PI intensity [5, 10]: 78,406.7
Melanin	1.0	Yes	39,360.1	
Polidocanol [reference compound]				Outgrowth [4, 9]: 0.1; Yeast CLS increase ([5]; concentration tested 30 μg/mL): No; PI intensity [5, 10]: 74,745.5
Schisantherin B	0.1	No	68,765.7	
Streptomycin (sulfate) [reference compound]	0.1	No	60,638.5	
Vincristine (sulfate) [reference compound]	0.1	No	62,812.1	
copanlisib dihydrochloride				log10 PI intensity (human cells): 3.59
plicamycin				log10 PI intensity (human cells): 3.91
